Laboratory results published in patent publication US8034314B2, “Photoreactive compound specifically binding to calcium binding proteins” (priority 2004, dated 2011).

How the values were obtained:
[1] = test system: mitochondrial uniporter (Ca2+ uptake in mitochondria); assay: Ca2+ uptake/accumulation in isolated mitochondria; format: biochemical, rat
Description: (§1) Sarcoplasmic reticulum (SR) membranes were prepared from rabbit fast twitch skeletal muscle as described by Saito [Saito et al.: J. Cell Biol. 99 (1984) 875-85]. Mitochondria were isolated from rat liver as described by us previously [Gincel D. et al.: Biochem J. 358 (2001) 147-55]. VDAC was purified by a method developed in our laboratory, using columns of hydroxyapatite and reactive red agarose [Gincel D. et al.: J. Bioenerget. Biomembr. 32 (2000) 571-83].
(§2) Ca^2+-accumulation in freshly prepared mitochondria (0.5 mg/ml) was assayed for 1 to 20 minutes at 30° C. in the presence of 225 mM mannitol, 75 mM sucrose, 120 μM CaCl2 (containing 3×10^4 cpm/nmol ^45Ca^2+), 5 mM HEPES/KOH pH 7.0, and 5 mM succinate with 0.1 mM Pi, or 4 mM MgCl2 with 3 mM ATP. The Ca^2+-uptake was terminated by rapid Millipore filtration, followed by a wash with 5 ml of 0.15 M KCl. The Ca^2+-accumulation in SR was determined as described previously [Shoshan-Barmatz V. & Shaineberg A.: Biochim. Biophys. Acta 1065 (1991) 82-8]. Electron transport from succinate to cytochrome c was described in above cited article [Gincel D. et al.: J. Bioenerget. Biomembr. 32 (2000) 571-83].
The effect of AzRu on mitochondrial process of electron transport from the donor succinate to the acceptor cytochrome c was characterized as described above. Although said electron transfer involves several dozens electron transfer carriers, this reaction was not affected by azido-ruthenium of this invention.
(§3) The hexavalent RuR and the trivalent Ru360 have been employed in various studies as inhibitors of Ca^2+-dependent reactions. As shown here, even with no photoactivation, AzRu, in contrast to RuR and Ru360, was effective in inhibiting the SR Ca^2+-pump (Table 3). […] This may open the way to inhibit other Ca^2+-dependent activities that are not sensitive to RuR, such as the plasma membrane Ca^2+-ATPase. […] RuR was employed to improve mitochondrial production in ischemic reperfused pig myocardium, was employed in the nervous system to follow neuronal death progress and can act as an anti-oxidant in certain conditions. Considering the potent activity of AzRu in RuR-insensitive reactions (see Table 3), its applications in various biological studies should be explored. Ca^2+ accumulation in SR and mitochondria was assayed as described above in the absence and presence of different concentrations of RuR (0.05-100 μM), Ru360 (0.01-100 μM) or AzRu (0.1-100 μM). The concentration required for 50% inhibition (IC50) was derived from the plot of Ca^2+ accumulation activity or ryanodine binding as a function of the reagent concentration. The results are the mean±SEM of 3 to 5 experiments (Table 3).

Ca2+-dependent proteins = assay: Activities of Ca2+-dependent proteins (summary of Table 1); format: biochemical; conditions: at ≦20 μM
Aldolase = biological target: T1, Aldolase (Oryctolagus cuniculus, UniProt P00883); assay: Aldolase activity; format: biochemical; conditions: AzRu 100 μM; mean ± SEM
T1 construct: purchased Sigma
From the text: (§4) Unlabelled ryanodine was obtained from Calbiochem. […] Ruthenium chloride was purchased from Aldrich.

Lysozyme = Lysozyme (Gallus gallus, UniProt P00698); assay: Lysozyme activity; format: biochemical; conditions: AzRu 100 μM; mean ± SEM
(Na+/K+)ATPase = (Na+/K+)ATPase activity; format: biochemical; conditions: mean ± SEM
Peroxidase = biological target: T2, Peroxidase (Armoracia rusticana, UniProt P00433); assay: Peroxidase activity; format: biochemical, horseradish; conditions: AzRu 20 μM; mean ± SEM
T2 construct: purchased Sigma
From the text: as §4

[2] = biological target: T3, Ca2+-pump (SERCA) of skeletal muscle sarcoplasmic reticulum (Oryctolagus cuniculus, UniProt P04191); assay: Ca2+ uptake/accumulation in SR membranes (Ca2+-pump activity); format: biochemical, rabbit
T3 construct: Sarcoplasmic reticulum (SR) membranes were prepared from rabbit fast twitch skeletal muscle; from tissue; host or cells: rabbit fast twitch skeletal muscle SR membranes
Description: as §1, §2
The preparation of SR membranes from skeletal muscle, and the measurement of Ca^2+-accumulation were carried out as described above.
as §3

VDAC = biological target: T4, VDAC (Rattus norvegicus, UniProt Q9Z2L0); assay: VDAC channel conductance in planar lipid bilayer; format: biochemical
T4 construct: VDAC was purified by a method developed in our laboratory, using columns of hydroxyapatite and reactive red agarose; from tissue; host or cells: mitochondria
Description: as §1
Reconstitution of purified VDAC into planar lipid bilayer (PLB), single channel current recording, and data analysis were carried out as described in above mentioned publication.
VDAC is a channel protein which transports Ca^2+ across the mitochondrial outer membrane. […] Purified VDAC was reconstituted into a planar lipid bilayer as multichannels. The channel activity was measured as the ions passed the current across the bilayer in response to a voltage gradient of 10 mV, as a function of time. In the absence of AzRu, VDAC is stable in a long-lived, fully opened state and remains open for up to 2 hours of recording. However, addition of AzRu to the same channel induced VDAC closure, in a time-dependent manner. Ca^2+, in the presence of 1 M NaCl, prevented the inhibitory effect of AzRu on VDAC activity.

Brain hexokinase = Brain hexokinase (Homo sapiens, UniProt P19367); assay: Brain hexokinase activity; format: biochemical; conditions: mean ± SEM
[3] = test system: glyceraldehyde 3-phosphate dehydrogenase; assay: GAP dehydrogenase activity; format: biochemical; conditions: AzRu 100 μM; mean ± SEM
From the text: as §4

Yeast hexokinase = Yeast hexokinase activity; format: biochemical; conditions: mean ± SEM
From the text: as §4

[4] = test system: Mg2+-dependent proteins and the Zn2+-sensitive KCNK0 channel; assay: Activities of Mg2+-dependent proteins and Zn2+-sensitive KCNK0 channel (summary of Table 1); format: biochemical; conditions: at 100 μM
K+ channel (KCKN0) = K+ channel (KCKN0) (Drosophila melanogaster, UniProt Q94526); assay: K+ channel (KCKN0) activity; format: biochemical; conditions: AzRu 20 μM; mean ± SEM
Sequence of K+ channel (KCKN0) (Q94526 whole entry): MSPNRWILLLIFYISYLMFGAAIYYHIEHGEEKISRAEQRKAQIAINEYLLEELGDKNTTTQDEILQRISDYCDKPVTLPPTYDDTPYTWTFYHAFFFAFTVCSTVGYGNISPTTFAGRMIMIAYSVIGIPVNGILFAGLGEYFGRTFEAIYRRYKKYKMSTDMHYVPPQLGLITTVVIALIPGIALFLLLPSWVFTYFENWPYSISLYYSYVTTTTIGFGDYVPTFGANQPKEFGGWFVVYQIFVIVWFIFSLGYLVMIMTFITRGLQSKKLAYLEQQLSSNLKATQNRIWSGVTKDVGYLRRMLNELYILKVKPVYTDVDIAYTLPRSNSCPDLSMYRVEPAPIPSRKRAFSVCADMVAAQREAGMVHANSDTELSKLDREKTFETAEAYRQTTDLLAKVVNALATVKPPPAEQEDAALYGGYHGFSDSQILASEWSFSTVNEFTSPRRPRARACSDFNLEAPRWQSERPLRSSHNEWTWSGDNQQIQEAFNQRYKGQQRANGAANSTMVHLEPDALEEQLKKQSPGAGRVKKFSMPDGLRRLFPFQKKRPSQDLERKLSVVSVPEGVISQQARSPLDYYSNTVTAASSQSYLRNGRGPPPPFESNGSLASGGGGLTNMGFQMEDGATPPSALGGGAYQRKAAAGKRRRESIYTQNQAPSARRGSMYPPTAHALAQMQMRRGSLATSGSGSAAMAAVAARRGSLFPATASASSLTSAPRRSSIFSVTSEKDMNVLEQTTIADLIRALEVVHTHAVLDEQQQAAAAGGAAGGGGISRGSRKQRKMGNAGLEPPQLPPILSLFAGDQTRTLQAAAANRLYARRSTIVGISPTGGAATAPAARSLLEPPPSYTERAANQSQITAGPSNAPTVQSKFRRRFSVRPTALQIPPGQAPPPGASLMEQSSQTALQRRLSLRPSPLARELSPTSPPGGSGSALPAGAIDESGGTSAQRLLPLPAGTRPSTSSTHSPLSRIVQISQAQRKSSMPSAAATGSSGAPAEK

T4 sequence (Q9Z2L0 whole entry): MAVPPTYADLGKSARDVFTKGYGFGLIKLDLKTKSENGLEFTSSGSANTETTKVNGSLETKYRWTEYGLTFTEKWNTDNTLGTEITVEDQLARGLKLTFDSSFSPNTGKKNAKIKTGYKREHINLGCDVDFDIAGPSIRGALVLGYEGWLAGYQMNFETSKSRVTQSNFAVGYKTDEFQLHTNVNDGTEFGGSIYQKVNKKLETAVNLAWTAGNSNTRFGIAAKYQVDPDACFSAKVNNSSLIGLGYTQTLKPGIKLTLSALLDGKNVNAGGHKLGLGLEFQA
T3 sequence (P04191 1-994 isoform P04191-2): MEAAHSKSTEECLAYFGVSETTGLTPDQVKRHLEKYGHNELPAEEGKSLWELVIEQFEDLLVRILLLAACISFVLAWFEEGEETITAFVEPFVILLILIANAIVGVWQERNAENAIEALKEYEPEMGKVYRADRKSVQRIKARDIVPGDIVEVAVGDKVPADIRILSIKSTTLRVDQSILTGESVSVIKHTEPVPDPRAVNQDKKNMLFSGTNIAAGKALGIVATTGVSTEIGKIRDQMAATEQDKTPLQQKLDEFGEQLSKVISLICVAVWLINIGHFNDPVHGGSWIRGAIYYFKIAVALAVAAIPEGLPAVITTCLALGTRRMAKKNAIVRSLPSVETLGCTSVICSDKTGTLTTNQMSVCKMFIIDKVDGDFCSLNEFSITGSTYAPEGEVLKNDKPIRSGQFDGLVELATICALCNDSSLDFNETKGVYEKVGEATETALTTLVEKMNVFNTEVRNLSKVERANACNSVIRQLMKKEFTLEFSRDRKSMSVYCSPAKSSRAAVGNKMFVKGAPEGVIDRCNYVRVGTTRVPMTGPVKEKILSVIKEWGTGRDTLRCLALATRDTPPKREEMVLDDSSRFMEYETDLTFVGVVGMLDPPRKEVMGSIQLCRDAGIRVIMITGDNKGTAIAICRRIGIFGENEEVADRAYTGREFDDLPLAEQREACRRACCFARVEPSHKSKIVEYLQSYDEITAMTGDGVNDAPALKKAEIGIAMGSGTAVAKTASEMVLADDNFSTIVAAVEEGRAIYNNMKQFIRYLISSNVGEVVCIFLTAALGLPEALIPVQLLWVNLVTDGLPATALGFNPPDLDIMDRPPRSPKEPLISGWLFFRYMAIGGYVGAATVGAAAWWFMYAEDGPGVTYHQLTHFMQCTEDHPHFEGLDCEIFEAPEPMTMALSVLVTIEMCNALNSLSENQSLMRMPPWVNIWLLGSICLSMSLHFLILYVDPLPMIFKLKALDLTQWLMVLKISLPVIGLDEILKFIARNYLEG
Sequence of Brain hexokinase (P19367 whole entry): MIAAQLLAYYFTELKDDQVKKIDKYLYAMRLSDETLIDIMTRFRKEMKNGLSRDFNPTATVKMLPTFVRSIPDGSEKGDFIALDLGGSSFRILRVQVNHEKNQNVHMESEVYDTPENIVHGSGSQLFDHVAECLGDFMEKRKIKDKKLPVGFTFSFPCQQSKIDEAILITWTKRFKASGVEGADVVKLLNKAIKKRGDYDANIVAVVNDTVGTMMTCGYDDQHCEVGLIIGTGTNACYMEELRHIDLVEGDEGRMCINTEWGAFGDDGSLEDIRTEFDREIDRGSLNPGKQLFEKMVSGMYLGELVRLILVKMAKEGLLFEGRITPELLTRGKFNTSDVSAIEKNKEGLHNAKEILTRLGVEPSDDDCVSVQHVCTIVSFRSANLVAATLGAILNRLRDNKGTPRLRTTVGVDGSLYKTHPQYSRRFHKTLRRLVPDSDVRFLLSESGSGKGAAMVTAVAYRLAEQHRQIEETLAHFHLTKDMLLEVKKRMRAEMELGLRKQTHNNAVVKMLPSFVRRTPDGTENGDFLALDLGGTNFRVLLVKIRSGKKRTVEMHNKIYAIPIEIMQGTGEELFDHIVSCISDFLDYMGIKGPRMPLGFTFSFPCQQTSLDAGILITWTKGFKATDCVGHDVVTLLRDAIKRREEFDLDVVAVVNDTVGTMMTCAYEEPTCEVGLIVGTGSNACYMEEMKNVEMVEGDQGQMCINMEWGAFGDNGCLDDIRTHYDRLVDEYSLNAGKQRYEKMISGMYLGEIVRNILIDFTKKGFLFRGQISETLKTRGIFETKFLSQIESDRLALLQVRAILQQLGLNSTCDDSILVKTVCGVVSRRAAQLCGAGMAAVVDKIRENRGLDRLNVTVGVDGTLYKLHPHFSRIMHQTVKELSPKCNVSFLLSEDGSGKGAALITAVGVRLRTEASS
Sequence of Lysozyme (P00698 19-147): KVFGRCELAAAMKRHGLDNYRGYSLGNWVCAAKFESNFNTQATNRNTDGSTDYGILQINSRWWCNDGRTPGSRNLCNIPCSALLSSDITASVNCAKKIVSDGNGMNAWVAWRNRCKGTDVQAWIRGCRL
T2 sequence (P00433 31-338): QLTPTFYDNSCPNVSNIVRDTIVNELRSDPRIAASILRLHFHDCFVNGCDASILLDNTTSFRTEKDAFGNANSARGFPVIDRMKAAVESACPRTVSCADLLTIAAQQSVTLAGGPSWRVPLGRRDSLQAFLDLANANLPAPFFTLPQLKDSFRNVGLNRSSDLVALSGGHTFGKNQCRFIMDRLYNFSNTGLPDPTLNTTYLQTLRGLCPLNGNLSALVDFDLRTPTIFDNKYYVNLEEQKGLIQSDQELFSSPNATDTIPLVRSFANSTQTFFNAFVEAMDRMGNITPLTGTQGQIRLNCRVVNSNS
T1 sequence (P00883 2-364 limits assumed): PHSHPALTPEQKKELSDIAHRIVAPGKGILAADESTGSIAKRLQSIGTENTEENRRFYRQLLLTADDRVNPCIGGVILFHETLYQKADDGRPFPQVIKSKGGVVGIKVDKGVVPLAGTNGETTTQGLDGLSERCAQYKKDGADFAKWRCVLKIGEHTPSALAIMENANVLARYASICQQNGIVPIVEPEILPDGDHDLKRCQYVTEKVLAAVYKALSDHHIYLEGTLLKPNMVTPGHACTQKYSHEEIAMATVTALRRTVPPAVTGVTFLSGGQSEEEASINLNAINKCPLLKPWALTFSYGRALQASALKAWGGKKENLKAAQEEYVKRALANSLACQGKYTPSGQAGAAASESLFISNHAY

azido-ruthenium [AzRu]
Effect on Ca2+ transport in mitochondria ([1]; isolated mitochondria, FIG. 7): inhibited | IC50 ([1]; no UV, mean ± SEM of 3 to 5 experiments): 1780 ± 120 nM | Inhibition of activities of Ca2+-dependent proteins (Ca2+-dependent proteins): up to 90% | Activity (% of control), Aldolase (Aldolase): 78 ± 7 % of control | Activity (% of control), Lysozyme (Lysozyme): 101 ± 3 % of control | Activity (% of control), (Na+/K+)ATPase ((Na+/K+)ATPase; AzRu 20 μM): 92 ± 5 % of control | Activity (% of control), (Na+/K+)ATPase ((Na+/K+)ATPase; AzRu 100 μM): 71 ± 4 % of control | Activity (% of control), Peroxidase (Peroxidase): 39 ± 4 % of control | IC50 ([2]; +UV (photoactivation), mean ± SEM): 1010 ± 95 nM | Activity (% of control), Ca2+ uptake in SR (SERCA) ([2]; AzRu 20 μM, mean ± SEM of 3 to 6 experiments): 13 ± 6 % of control | Change of sensitivity of the Ca2+-pump activity to the reagent by photoactivation ([2]; UV irradiation, SR membranes): increased more than two-fold | IC50 ([2]; no photoactivation, mean ± SEM of 3 to 5 experiments): 4910 ± 55 nM | Activity (% of control), VDAC conductance (VDAC; AzRu 20 μM, mean ± SEM): 19 ± 5 % of control | Effect on VDAC conductance in multi-channel experiments (VDAC; all voltages tested): decreased VDAC conductance | Effect on VDAC channel activity (VDAC; purified VDAC in planar lipid bilayer, voltage gradient 10 mV): inhibited the channel activity of VDAC | Activity (% of control), Brain hexokinase (Brain hexokinase; AzRu 20 μM): 73 ± 7 % of control | Activity (% of control), Brain hexokinase (Brain hexokinase; AzRu 100 μM): 61 ± 3 % of control | Activity (% of control), GAP dehydrogenase [3]: 102 ± 5 % of control | Activity (% of control), Yeast hexokinase (Yeast hexokinase; AzRu 20 μM): 77 ± 5 % of control | Activity (% of control), Yeast hexokinase (Yeast hexokinase; AzRu 100 μM): 64 ± 4 % of control | Inhibition of activities of Mg2+-dependent proteins and Zn2+-sensitive KCNK0 channel [4]: ~30% | Activity (% of control), K+ channel (KCKN0) (K+ channel (KCKN0)): 100 ± 0.3 % of control
